Assay results reported in ChEMBL document CHEMBL1201862, “PubChem BioAssay data set” (2004).
The source made the active and inactive calls.

Experiments:
[1] = target: T1, Tyrosine-protein phosphatase non-receptor type 22 (Homo sapiens, UniProt Q9Y2R2); assay: LYP (PTPN22) phosphatase inhibitor potency, SAR follow-up, biochemical, pCAP fluorogenic substrate, fluorescence, set 3 (AID 449727); assay type: functional
T1 sequence (Q9Y2R2 whole entry): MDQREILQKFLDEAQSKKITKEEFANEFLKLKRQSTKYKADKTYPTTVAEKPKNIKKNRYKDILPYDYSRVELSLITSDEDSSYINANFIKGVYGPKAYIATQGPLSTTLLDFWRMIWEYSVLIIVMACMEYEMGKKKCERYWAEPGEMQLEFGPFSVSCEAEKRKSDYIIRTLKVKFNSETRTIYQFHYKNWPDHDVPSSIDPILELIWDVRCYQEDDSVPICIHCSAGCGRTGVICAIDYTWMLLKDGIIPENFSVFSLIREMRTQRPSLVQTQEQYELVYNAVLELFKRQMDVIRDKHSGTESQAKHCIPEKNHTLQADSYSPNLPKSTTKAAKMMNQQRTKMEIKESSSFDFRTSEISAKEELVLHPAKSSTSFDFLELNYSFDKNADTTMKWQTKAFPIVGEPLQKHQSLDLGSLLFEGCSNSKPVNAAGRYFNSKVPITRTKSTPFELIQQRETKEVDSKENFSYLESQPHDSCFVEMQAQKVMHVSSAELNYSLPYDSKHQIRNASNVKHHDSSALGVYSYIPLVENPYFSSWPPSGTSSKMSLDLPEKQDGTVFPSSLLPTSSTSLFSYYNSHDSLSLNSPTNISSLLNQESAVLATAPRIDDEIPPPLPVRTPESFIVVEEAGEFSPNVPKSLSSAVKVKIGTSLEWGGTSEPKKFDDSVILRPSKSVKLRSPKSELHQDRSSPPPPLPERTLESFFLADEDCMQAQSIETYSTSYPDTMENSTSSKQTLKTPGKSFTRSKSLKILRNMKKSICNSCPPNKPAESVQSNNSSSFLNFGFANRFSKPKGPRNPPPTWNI

[2] = target: T2, Dual specificity protein phosphatase 3 (Homo sapiens, UniProt P51452); assay: MOA VHR1 Fluorescent secondary assay for identification of redox-state modulating compounds. [Related pubchem assays (depositor defined):AID1654, AID1661, AID1878, AID1957]
T2 sequence (P51452 whole entry): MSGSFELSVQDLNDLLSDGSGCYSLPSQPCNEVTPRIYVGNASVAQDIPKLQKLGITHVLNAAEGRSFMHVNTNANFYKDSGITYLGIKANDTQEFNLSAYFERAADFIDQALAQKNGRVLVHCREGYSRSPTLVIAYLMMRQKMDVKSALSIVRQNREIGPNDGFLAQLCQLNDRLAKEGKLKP

[3] = target: T3, Tyrosine-protein phosphatase non-receptor type 7 (Homo sapiens, UniProt P35236); assay: HePTP (PTPN7) phosphatase inhibitor potency, SAR follow-up, biochemical, set 2 (AID 449736); assay type: functional
T3 sequence (P35236 whole entry): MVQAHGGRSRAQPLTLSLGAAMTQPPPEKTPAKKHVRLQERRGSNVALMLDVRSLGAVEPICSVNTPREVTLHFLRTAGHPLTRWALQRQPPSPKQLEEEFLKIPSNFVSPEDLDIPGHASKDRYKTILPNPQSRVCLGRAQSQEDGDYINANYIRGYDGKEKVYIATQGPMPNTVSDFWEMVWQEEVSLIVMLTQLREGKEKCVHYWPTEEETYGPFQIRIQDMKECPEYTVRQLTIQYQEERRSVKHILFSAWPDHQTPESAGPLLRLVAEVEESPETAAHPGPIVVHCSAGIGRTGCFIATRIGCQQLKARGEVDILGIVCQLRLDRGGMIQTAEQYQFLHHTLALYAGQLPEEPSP

[4] = target: T1, Tyrosine-protein phosphatase non-receptor type 22; assay: SAR LYP1 Fluorescent Assay using OMFP substrate for In Vitro dose response studies - Set 3. [Related pubchem assays (depositor defined):AID1779, AID1784, AID2140, AID2686]; assay type: functional
[5] = target: Tyrosine-protein phosphatase non-receptor type 12 (Homo sapiens, UniProt Q05209); assay: SAR Selectivity Analysis of small molecule inhibitors of PEST using pCAP in a fluorescence assay. [Related pubchem assays (depositor defined):AID1779, AID1784, AID2135]; assay type: functional
[6] = target: T2, Dual specificity protein phosphatase 3; assay: SAR VHR1 Fluorescent Assay for In Vitro dose response studies Set 2. [Related pubchem assays (depositor defined):AID1654, AID1661, AID1878]; assay type: functional
[7] = target: T2, Dual specificity protein phosphatase 3; assay: SAR VHR1 Fluorescent Assay for In Vitro dose response studies. [Related pubchem assays (depositor defined):AID1654, AID1661, AID1878, AID1992, AID2004, AID2070, AID2085]; assay type: functional
[8] = target: Dual specificity protein phosphatase 6 (Rattus norvegicus, UniProt Q64346); assay type: functional;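 note: confirmatory in vitro dose-response testing of MKP-3 inhibition; recombinant His-tagged MKP-3 made in E. coli BL21 with OMFP substrate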
[9] = target: T3, Tyrosine-protein phosphatase non-receptor type 7; assay: redox-dependent HePTP inhibition, mechanism study, biochemical, fluorescence (AID 2068); assay type: functional
Cytochrome P450 1A2 = target: T4, Cytochrome P450 1A2 (Homo sapiens, UniProt P05177);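 note: PubChem cytochrome P450 panel assay, CYP1A2 panel member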
T4 sequence (P05177 whole entry): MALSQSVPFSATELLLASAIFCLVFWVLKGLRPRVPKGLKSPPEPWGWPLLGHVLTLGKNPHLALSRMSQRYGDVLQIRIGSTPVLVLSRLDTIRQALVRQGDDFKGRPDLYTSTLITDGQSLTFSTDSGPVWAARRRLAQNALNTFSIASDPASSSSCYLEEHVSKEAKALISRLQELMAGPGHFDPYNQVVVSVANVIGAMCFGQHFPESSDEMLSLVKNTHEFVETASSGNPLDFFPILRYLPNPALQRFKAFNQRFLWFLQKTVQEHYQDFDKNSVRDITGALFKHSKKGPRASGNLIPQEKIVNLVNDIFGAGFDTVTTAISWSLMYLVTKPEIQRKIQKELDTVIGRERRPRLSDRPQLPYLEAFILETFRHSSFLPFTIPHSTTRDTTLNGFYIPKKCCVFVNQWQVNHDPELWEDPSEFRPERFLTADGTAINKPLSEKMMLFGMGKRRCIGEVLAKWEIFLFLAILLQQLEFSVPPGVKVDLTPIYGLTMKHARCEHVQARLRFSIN

Cytochrome P450 2C19 = Cytochrome P450 2C19 (Homo sapiens, UniProt P33261); assay: Cytochrome panel assay with activity outcomes. Panel member name: p450-cyp2c19 Compounds with AC50 equal or less than 10 uM are considered active; assay type: functional; details: read-out: AC50
Cytochrome P450 2C9 = Cytochrome P450 2C9 (Homo sapiens, UniProt P11712)
[10] = growth induction of Burl-1 ts yeast mutant, dose response, counter-screen for SUMOylation pathway inhibitor project, whole organism, S. cerevisiae, luminescence (AID 463199); assay type: functional
[11] = NIH-3T3 fibroblast cytotoxicity, dose response, cytotoxicity control, cell-based, fluorescence, Alamar Blue, secondary assay (AID 2327); assay type: functional;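 note: NIH-3T3 mouse fibroblasts cultured with fluconazole at 8 µg/mL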
[12] = target: ATP-dependent molecular chaperone HSP82 (Candida albicans (strain WO-1) (Yeast), UniProt C4YTQ8); assay: loss of DOC-induced GRE-beta-galactosidase reporter signal, dose response, Hsp90 inhibitor project, S. cerevisiae, luminescence (AID 2400); assay type: functional, cell-based;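 note: beta-galactosidase luminescence from glucocorticoid response element reporter as proxy for Hsp90 function; inhibitor potency where signal loss means Hsp90 inhibition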
[13] = C. albicans growth with fluconazole, confirmation, fluorescence, retest (AID 2467); assay type: functional, cell-based
[14] = insulin promoter down-regulators in MIN6 cells, imaging, high-content screening, mouse beta cells (AID 1628); assay type: functional
[15] = target: T5, Serine/threonine-protein phosphatase (Candida dubliniensis (strain CD36 / CBS 7987 / NCPF 3949 / NRRLY-17841) (Yeast), UniProt B9W6M3); assay: calcineurin pathway inhibitors in yeast reporter, dose response, S. cerevisiae, CDRE-lacZ, luminescence, secondary (AID 2388); assay type: functional, cell-based;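 note: yeast reporter cells carrying a calcineurin-responsive lacZ construct stimulated with calcium chloride; luminescent beta-galactosidase reporter signal in whole cells rather than isolated phosphatase activity; potency for inhibition where a drop in reporter signal means calcineurin blockade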
T5 sequence (B9W6M3 whole entry): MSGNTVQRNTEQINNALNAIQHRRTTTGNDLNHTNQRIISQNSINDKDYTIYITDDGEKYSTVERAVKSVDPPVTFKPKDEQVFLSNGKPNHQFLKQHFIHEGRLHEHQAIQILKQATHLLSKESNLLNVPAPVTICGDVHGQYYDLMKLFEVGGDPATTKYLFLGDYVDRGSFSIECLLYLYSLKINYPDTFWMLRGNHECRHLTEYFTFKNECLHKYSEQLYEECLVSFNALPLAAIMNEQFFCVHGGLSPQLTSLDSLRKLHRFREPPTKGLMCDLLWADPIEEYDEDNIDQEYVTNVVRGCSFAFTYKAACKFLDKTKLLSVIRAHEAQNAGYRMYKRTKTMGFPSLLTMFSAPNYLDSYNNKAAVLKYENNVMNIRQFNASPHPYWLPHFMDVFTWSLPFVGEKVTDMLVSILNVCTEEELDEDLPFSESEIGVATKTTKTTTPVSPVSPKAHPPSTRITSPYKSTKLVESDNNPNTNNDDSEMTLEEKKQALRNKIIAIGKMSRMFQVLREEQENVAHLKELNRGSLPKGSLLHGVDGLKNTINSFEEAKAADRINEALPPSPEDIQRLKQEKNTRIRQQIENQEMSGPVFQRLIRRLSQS

INS1 = assay: beta cell apoptosis inhibitors, cytokine rescue, dose response, luminescence, retest (AID 449756); assay type: functional, cell-based; details: Rattus norvegicus;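 note: cell death triggered by IL-1 beta plus TNF-alpha plus IFN-gamma mixture; protective hits raise ATP signal compared with cytokine alone wells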
[16] = cytotoxicity in MIN6 insulinoma cells, dose response, cytotoxicity control, cell-based, mouse insulinoma (AID 2122); assay type: functional;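 note: confirmatory high-throughput counterscreen run to flag cytotoxic compounds; mouse MIN-6 beta cells carrying an insulin promoter eGFP reporter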
fMet-Leu-Phe receptor = fMet-Leu-Phe receptor (Homo sapiens, UniProt P21462); assay: FPR ligands, dose response (AID 519); assay type: functional
Cytochrome P450 3A4 = Cytochrome P450 3A4 (Homo sapiens, UniProt P08684);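 note: CYP3A4 tested as one member of a cytochrome P450 panel screen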
Cytochrome P450 2D6 = Cytochrome P450 2D6 (Homo sapiens, UniProt P10635);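 note: CYP2D6 member of a cytochrome P450 panel assay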
[17] = target: T6, Voltage-gated N-type calcium channel alpha-1B subunit/Amyloid beta A4 precursor protein-binding family A member 1 (Homo sapiens, UniProt Q00975+Q02410); assay type: protein assay
T6 sequence (Q00975 whole entry): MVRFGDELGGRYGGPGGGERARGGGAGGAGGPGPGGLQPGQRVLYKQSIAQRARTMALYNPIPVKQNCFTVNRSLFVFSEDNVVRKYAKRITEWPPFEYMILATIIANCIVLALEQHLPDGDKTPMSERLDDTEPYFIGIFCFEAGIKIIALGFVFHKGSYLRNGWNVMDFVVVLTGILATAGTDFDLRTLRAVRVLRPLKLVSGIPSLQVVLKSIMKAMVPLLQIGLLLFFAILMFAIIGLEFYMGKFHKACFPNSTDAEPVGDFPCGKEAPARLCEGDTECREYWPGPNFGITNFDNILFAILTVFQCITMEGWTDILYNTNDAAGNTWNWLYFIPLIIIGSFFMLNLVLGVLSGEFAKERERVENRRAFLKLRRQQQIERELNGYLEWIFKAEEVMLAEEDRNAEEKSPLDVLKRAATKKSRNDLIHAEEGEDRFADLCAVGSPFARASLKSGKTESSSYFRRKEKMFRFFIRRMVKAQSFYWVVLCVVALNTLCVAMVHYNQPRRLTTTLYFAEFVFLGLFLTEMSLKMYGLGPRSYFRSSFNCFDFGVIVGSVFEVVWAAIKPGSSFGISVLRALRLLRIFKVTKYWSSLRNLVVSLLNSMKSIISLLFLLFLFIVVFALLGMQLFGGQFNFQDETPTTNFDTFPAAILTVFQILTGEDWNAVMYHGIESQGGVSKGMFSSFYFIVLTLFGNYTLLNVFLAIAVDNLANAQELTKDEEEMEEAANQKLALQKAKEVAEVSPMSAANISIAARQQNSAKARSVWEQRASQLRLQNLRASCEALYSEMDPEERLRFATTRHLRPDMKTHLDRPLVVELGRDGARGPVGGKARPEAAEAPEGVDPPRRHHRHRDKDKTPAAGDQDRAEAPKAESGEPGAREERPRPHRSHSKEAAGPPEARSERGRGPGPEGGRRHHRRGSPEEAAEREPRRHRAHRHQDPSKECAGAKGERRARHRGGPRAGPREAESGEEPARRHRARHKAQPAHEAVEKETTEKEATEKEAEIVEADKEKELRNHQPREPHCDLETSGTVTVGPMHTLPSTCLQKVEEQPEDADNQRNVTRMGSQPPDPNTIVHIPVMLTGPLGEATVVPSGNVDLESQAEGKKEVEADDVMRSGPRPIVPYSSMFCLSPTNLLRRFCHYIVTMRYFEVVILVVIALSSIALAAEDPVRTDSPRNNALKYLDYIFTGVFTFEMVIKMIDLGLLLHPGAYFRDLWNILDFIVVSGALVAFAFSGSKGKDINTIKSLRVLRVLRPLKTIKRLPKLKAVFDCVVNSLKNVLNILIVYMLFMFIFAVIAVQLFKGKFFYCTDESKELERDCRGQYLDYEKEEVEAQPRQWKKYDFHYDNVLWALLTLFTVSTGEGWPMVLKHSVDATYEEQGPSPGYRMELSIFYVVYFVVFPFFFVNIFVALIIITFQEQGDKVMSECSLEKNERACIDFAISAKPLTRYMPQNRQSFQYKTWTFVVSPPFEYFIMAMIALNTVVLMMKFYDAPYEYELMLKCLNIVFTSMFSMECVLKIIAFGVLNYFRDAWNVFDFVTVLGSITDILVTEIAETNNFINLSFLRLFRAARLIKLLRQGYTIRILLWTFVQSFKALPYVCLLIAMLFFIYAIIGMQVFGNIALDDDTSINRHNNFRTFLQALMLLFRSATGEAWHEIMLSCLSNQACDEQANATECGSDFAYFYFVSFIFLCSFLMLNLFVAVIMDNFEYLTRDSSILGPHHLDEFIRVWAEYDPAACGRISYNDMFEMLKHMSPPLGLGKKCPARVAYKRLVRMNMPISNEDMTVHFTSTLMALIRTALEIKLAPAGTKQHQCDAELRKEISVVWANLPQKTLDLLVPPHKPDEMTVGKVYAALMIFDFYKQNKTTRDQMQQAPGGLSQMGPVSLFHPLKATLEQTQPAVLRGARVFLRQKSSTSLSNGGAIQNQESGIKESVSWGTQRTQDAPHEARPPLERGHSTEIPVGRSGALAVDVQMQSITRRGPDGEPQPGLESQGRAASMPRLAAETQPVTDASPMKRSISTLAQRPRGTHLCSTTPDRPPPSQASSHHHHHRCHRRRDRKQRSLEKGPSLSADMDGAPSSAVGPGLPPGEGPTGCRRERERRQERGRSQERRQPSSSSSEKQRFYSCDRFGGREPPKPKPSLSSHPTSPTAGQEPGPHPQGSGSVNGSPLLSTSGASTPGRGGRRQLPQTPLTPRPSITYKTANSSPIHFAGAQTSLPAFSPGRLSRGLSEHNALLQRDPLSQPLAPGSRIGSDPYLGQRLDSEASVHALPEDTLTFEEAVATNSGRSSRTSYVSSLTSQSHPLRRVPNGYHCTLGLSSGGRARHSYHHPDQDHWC
T6 sequence (Q02410 whole entry): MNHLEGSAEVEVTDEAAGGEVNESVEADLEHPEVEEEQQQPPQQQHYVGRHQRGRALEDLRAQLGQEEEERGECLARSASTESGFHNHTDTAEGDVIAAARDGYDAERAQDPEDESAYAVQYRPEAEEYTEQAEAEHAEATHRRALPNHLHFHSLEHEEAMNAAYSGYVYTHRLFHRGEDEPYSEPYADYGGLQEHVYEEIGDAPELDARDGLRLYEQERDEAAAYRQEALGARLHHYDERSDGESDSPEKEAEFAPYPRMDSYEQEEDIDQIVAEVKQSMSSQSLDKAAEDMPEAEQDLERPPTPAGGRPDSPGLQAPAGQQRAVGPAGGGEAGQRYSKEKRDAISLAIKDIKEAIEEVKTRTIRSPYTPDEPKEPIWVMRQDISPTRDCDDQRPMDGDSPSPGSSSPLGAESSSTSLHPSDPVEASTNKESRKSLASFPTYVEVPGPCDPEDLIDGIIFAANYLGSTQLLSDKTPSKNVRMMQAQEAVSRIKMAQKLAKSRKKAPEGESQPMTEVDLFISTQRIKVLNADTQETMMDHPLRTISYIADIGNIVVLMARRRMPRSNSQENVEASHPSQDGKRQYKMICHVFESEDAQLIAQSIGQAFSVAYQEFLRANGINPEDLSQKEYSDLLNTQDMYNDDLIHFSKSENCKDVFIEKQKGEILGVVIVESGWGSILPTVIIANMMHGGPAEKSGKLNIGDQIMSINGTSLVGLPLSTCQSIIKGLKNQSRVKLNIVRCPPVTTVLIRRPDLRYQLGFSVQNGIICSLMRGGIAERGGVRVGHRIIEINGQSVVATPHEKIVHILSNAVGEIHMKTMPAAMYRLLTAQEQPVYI

[18] = target: UDP-galactopyranose mutase (Mycobacterium tuberculosis, UniProt P9WIQ1); assay: Inhibitors of Mycobacterium tuberculosis UDP-galactopyranose mutase (UGM) enzyme Measured in Biochemical System Using Plate Reader - 2105-02_Inhibitor_Dose_CherryPick_Activity. [Related pubchem assays (depositor defined):AID504439]
UDP-galactopyranose mutase, sequence (P9WIQ1 whole entry): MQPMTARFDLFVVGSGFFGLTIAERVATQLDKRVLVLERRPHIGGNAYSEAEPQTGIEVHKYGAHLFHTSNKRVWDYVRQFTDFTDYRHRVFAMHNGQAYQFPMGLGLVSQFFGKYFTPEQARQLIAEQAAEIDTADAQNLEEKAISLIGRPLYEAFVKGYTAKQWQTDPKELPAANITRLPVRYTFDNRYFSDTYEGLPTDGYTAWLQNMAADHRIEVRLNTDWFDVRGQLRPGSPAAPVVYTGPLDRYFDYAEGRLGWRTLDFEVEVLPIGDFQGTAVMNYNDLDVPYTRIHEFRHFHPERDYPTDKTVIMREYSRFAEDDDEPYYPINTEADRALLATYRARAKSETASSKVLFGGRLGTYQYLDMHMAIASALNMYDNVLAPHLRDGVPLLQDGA

Keap1/Nrf2 = Keap1/Nrf2 (Homo sapiens, UniProt Q14145); assay: Keap1-Nrf2 protein-protein interaction inhibitors, dose response, biochemical, fluorescence polarization, cherry-picked samples (AID 588683)
Keap1/Nrf2, sequence (Q16236 whole entry): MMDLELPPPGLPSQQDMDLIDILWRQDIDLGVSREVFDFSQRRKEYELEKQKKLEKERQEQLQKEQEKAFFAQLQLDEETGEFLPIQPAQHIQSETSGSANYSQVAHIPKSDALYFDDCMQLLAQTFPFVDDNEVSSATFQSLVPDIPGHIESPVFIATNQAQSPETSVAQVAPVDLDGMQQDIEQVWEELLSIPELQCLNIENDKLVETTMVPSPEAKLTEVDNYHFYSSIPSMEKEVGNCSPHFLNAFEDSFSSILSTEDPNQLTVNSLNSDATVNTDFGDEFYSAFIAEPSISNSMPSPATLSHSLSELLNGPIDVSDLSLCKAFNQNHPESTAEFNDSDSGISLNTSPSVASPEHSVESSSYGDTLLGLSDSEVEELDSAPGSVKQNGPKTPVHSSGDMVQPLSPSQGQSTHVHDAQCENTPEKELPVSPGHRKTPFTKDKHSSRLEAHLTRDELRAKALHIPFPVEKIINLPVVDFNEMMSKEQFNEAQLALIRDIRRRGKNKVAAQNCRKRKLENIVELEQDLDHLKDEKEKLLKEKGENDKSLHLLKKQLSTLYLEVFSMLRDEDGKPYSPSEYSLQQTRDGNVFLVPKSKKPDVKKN
Keap1/Nrf2, sequence (Q14145 whole entry): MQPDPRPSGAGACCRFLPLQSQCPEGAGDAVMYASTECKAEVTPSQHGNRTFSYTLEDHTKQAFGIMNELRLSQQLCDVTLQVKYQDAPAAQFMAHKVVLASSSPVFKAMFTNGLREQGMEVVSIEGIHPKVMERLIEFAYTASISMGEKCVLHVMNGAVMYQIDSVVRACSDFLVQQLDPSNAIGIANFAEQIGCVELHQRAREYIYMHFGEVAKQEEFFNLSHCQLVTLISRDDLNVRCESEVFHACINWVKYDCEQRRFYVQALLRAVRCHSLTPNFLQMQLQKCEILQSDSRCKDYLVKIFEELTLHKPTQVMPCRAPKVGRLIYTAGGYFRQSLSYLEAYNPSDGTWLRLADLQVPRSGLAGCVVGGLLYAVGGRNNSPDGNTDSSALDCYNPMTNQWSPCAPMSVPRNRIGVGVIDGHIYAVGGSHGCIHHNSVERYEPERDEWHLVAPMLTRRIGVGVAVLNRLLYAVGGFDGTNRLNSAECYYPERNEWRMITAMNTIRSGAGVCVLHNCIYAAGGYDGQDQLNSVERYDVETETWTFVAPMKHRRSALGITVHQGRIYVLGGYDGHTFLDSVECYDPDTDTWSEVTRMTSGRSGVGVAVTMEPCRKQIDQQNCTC

[19] = target: T6, Voltage-gated N-type calcium channel alpha-1B subunit/Amyloid beta A4 precursor protein-binding family A member 1; assay type: protein assay; remark: listed apart in the source
Beta-lactamase [20] = target: Beta-lactamase (Pseudomonas aeruginosa, UniProt Q79MP6);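 note: biochemical dose-response test of metallo-beta-lactamase enzyme inhibition, read out by epi-absorbance; purified recombinant IMP-1 metallo-beta-lactamase with nitrocefin as substrate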
Beta-lactamase [21] = target: Beta-lactamase (Salmonella choleraesuis (strain SC-B67), UniProt Q5J463)
ORF 73 = target: T7, ORF 73 (Human herpesvirus 8, UniProt O40947); assay: inhibitors of C-LANA binding to LBS DNA, dose response, biochemical, fluorescence polarization, cherry-picked samples (AID 504725); set-up: species or system Human gammaherpesvirus 8;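 note: fluorescence polarization of a labeled DNA duplex reporting LANA DNA binding; potency is for inhibitors that block LANA binding to the DNA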
T7 sequence (O40947 whole entry): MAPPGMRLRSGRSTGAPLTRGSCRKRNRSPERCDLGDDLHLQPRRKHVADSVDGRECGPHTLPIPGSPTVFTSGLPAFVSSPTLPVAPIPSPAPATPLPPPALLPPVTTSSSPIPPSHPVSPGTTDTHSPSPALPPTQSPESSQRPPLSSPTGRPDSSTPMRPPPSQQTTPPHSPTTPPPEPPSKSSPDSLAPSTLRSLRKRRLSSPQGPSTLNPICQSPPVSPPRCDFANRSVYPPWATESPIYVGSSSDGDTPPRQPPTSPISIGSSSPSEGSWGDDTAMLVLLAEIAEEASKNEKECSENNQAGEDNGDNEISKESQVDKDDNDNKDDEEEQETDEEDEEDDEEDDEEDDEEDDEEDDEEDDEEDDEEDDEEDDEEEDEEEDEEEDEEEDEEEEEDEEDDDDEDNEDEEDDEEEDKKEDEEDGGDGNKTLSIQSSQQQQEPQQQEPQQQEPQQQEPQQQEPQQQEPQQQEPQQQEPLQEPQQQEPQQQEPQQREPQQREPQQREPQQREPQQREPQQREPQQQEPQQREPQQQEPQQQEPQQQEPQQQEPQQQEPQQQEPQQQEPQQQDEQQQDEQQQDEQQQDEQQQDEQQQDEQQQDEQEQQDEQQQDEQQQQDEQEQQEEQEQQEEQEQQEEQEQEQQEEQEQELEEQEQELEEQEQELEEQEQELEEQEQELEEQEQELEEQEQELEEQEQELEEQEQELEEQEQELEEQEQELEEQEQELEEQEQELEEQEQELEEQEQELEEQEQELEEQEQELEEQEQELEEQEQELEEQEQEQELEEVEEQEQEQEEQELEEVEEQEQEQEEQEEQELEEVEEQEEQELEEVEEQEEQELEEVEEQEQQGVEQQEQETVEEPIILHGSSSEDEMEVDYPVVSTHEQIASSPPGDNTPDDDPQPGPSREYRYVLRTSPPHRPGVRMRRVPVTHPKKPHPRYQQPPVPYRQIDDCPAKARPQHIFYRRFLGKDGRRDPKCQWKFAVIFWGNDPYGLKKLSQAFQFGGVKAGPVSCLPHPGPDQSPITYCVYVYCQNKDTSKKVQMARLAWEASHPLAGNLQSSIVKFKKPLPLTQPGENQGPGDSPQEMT

CCOC(=O)C1=C(C)N=c2s/c(=C\c3cc(Cl)c(OCC(=O)O)c(Cl)c3)c(=O)n2C1c1cccc(OC)c1 (stereo not given)
active: IC50 [1] 34.1 µM | IC50 [2] 2.76 µM | IC50 [3] 1.22 µM | IC50 [4] 44.6 µM | IC50 [5] 7.99 µM | IC50 [6] 31.9 µM | IC50 [7] 13.4 µM | IC50 [8] 49.7 µM | IC50 [9] 1.95 µM

CCOC(=O)N1CCN(Cc2nc3c(c(=O)[nH]c(=O)n3C)n2Cc2ccccc2C)CC1
inconclusive: AC50 (Cytochrome P450 1A2) | AC50 (Cytochrome P450 2C19) 20 µM | AC50 (Cytochrome P450 2C9) 35.5 µM

CCC1SC2=NC(C)=C(C(=O)OCCOC)C(c3ccc(C(=O)OC)cc3)N2C1=O (stereo not given)
active: AC50 [10] 50.8 µM

CCCCCCC[n+]1ccc(-c2cc[n+](CCCCCCC)cc2)cc1
inactive: EC50 [12] > 160 µM | EC50 [15] > 180 µM
active: EC50 [11] 64.9 µM | EC50 [13] 55 nM | IC50 [14] 2.74 µM | AC50 (INS1) 220 nM | IC50 [16] 3.65 µM

Cc1c(C(=O)NC2CCCc3ccccc32)oc2ccc(S(=O)(=O)N3CCOCC3)cc12 (stereo not given)
inconclusive: AC50 (Cytochrome P450 3A4) | AC50 (Cytochrome P450 2D6)
inactive: Ki (fMet-Leu-Phe receptor) 37 µM

CCCCn1c(=O)[nH]c2nc3cc(N)ccc3nc2c1=O
inactive: IC50 [19] > 50 µM | IC50 (Beta-lactamase [20]) 20.7 µM
active: IC50 [17] 19.1 µM | AC50 [18] 2.42 µM | AC50 (Keap1/Nrf2) 3.52 µM | IC50 (Beta-lactamase [21]) 7.87 µM | AC50 (ORF 73) 2.4 µM
